Assay results taken from the METLIN SMRT retention time set (Domingo-Almenara et al. 2019).

Experiment: gradient 5% acetonitrile 3 min, to 50% in 2 min, to 85% in 15 min, held 3 min, 100 µL/min
Conditions: column: Zorbax Extend-C18 2.1 x 50 mm; eluents: water / acetonitrile, 0.1% formic acid
Outline: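 A Zorbax Extend-C18 column (2.1 × 50 mm, 1.8 μm) run at 100 μL/min with water and acetonitrile, both containing 0.1% formic acid, separated mixtures of ~100 pure standards. The HPLC was coupled to a quadrupole time-of-flight mass spectrometer operated in positive and negative ionization mode, with dead and dwell volumes of 40 μL and 900 μL. Each retention time was taken from a computationally picked adduct peak that was then manually inspected.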

| Compound | RP-LC retention time [s] |
| --- | --- |
| CCn1cnc(S(=O)(=O)N2CCC(C(=O)Nc3nccs3)CC2)c1 | 636 |
| C=CCNC(=O)CN1C(=O)C2CCCCN2c2ccc(S(=O)(=O)N(C)C)cc21 (centres undefined) | 774 |
| COc1ccc(S(=O)(=O)N2CCCC(C(=O)Nc3ccc4c(c3)OCCO4)C2)cc1C (centres undefined) | 958 |
| O=c1ccc(-c2ccc3c(c2)OCO3)nn1Cc1nc(-c2ccc(C(F)(F)F)cc2)no1 | 1070 |
| CCN1C(=O)COc2ccc(-c3noc(-c4ccccc4)n3)cc21 | 1140 |
| CC1Cc2ccccc2N1C(=O)Cc1csc2nc(-c3ccccc3)cn12 (centres undefined) | 881 |
| OC(CN1CCN(c2cccc(Cl)c2)CC1)c1ccc2c(c1)OCO2 (centres undefined) | 690 |
| CCCc1ccc(S(=O)(=O)N2CCc3c(c(-c4nnc(-c5ccc(F)cc5)o4)nn3C)C2)cc1 | 1070 |
| CCC(C)N1CC(=O)N(c2ccc(OC)c(Cl)c2)[C@@H]2CS(=O)(=O)C[C@@H]21 (some centres undefined) | 786 |
| O=C(Nc1ccc(Br)cc1F)c1cc(-c2cccnc2)n[nH]1 | 733 |
| Cc1ccsc1C(=O)Nc1ccc2ncnc(N3CCCCC3)c2c1 | 687 |
| O=C(NC1CC1)C1CCN(Cc2cc3ccccc3n2Cc2ccc(Cl)cc2)CC1 | 717 |
| O=C(c1cccc(OCC2CCCN(C(=O)C3CCCO3)C2)c1)N1CCCC1 (centres undefined) | 718 |
| Cn1ncc2c3ccccc3n(CC(=O)N3CCN(c4ccccn4)CC3)c2c1=O | 591 |
| COc1cccc(CNC(=O)c2cc3c(=O)n(C)ccc3n2C)c1 | 663 |
| COc1ccc(-c2csc3c(=O)n(Cc4cccc(F)c4)cnc23)cc1 | 1050 |
| COCCOCC1CCN(S(=O)(=O)c2ccc(C(F)(F)F)cc2)CC1 | 937 |
| CCCNC(=O)C12CCC(C)(C(=O)C1)C2(C)C (centres undefined) | 657 |

| Compound | RP-LC retention time [s] |
| --- | --- |
| CN1C(=O)C2CCCCN2c2ccc(C(=O)NCCC3=CCCCC3)cc21 (centres undefined) | 993 |
| Cc1ncc2c(n1)CCN(C(=O)c1c(F)cccc1Cl)C2 | 663 |
| Cc1nc2c(nc1C)C(=O)c1ccccc1C2=O | 655 |
| COc1ccc(-c2nc3ncc4c(=O)n(CCc5c[nH]c6ccc(F)cc56)ccc4n3n2)cc1 | 935 |
| Cc1ccc(CN2CC(COc3cccnc3)C3(CCOCC3)C2)c(C)c1 (centres undefined) | 591 |
| Cc1cc2nc(C(=O)Nc3ccc(F)c(F)c3)cc(C)n2n1 | 986 |
| CCCN(CC1CCOC1)S(=O)(=O)c1cccc(F)c1 (centres undefined) | 850 |
| O=C(Nc1ccc(OCc2nnc(-c3ccccc3)o2)cc1)c1ccccn1 | 905 |
| CCOC(=O)c1ccc(NC(=O)C2CCCN(S(=O)(=O)c3ccc(OC)c(Cl)c3)C2)cc1 (centres undefined) | 1060 |
| CC1CCC(NC(=O)c2cn(-c3ccc(NC(=O)C4CC4)cn3)cn2)CC1 (centres undefined) | 790 |
| O=C(C1CC(=O)N(c2ccccc2)C1)N1CCC2(CC1)OCCS2 (centres undefined) | 682 |
| O=C(Nc1ccc(Cl)cc1C(=O)c1ccccc1)c1ccc(N2C(=O)CCC2=O)cc1 | 896 |
| Cc1cc(C)n2c(Nc3c(C)cccc3C)c(-c3ccccc3)nc2n1 | 743 |
| Cc1cc(C)cc(C(=O)NCc2ccc3c(c2)ncn3C)c1 | 615 |
| COc1ccc(C2c3c(oc4cc(C)c(C)cc4c3=O)C(=O)N2CCCN2CCOCC2)cc1OC (centres undefined) | 766 |
| Cc1ccc(NC(=O)Nc2nc(C(=O)Nc3ccc4c(c3)OCO4)cs2)cc1 | 852 |
| CC(C)C(=O)NCc1nc(-c2ccccc2Cl)no1 | 754 |
| Cc1cccc(C(=O)N2CCC3(CC2)NC(=O)c2ccc(F)cc2N3C)c1 | 763 |

The next lines start with the values.

| RP-LC retention time [s] | Compound |
| --- | --- |
| 528 | Cc1cccc(NC(=O)CCCCC(=O)O)n1 |
| 1180 | COC(=O)c1ccc2c(=O)n(-c3cc(C)cc(C)c3)c(N3CCSC3)nc2c1 |
| 1030 | Cc1cc(Cl)ccc1NS(=O)(=O)c1ccc2onc(C(=O)N3CCCC3)c2c1 |
| 639 | COc1ccc(CN2CCC(NC(=O)C3(c4ccccc4)CC3)C2)cn1 (centres undefined) |
| 842 | CCC(c1cccs1)N1C(=O)[C@H]2CN(S(=O)(=O)c3ccc(C)cc3C)C[C@H]2C1=O (some centres undefined) |
| 730 | O=C(Nc1ccc(N2CCCN(C(=O)C3CC3)CC2)cc1)c1cc(-c2ccc(F)cc2)n[nH]1 |
| 831 | COc1ccccc1-c1noc(C2CCCN2C(=O)C2CCC2)n1 (centres undefined) |
| 987 | CCSc1nc2ccc(NS(=O)(=O)c3ccc4c(c3)OCCO4)cc2s1 |
| 958 | O=C(C1CCCC1)N1CC(c2nc(-c3ccc(F)cc3)no2)C2(CCOCC2)C1 (centres undefined) |
| 1100 | COc1cc(NS(=O)(=O)c2ccc(Nc3nc(-c4ccc(C)cc4)cs3)cc2)nc(OC)n1 |
| 912 | CCCC(=O)Nc1ccc(C(=O)Nc2nc(-c3ccccc3)cs2)cc1 |
| 889 | Cc1nc(-c2noc(-c3cccc(F)c3)n2)cn1CC(=O)Nc1cccc(F)c1 |
| 919 | COc1ccc(-c2c(C(=O)Nc3ccc4c(c3)OCCO4)nc3ccccn23)cc1 |
| 927 | CC(C)c1ccc2c(c1)-c1ccccc1S(=O)(=O)N2CC(=O)N1CC(=O)Nc2ccccc21 |
| 706 | Cc1c(C(=O)N2CCN(c3ccc(F)cc3)CC2)sc2nc[nH]c(=O)c12 |
| 924 | CCCCNC(=O)Cn1nc2c3cc(-c4ccc(C)c(C)c4)nn3ccn2c1=O |
| 822 | COC(=O)c1ccc(-c2nc3cnccn3c2Nc2cccc(C(=O)OC)c2)cc1 |
| 968 | COCCCn1c(=O)c2ccccc2n(Cc2nc(-c3ccc(OC)cc3)no2)c1=O |
| 1050 | Cc1nc(-c2cn(C(C)C)c3ncccc23)sc1C(=O)N1CCCC(C)C1 (centres undefined) |
| 920 | CCCC(=O)Nc1nc2ccc(CCC(=O)Nc3cc(Cl)c(OC)cc3OC)cc2s1 |
| 816 | CCCN1C(=O)COc2ccc(-c3csc(NC(=O)c4ccncc4)n3)cc21 |
| 586 | COc1ccc(-c2cc3nc(C)cc(Nc4ccc(C(N)=O)cc4)n3n2)cc1OC |
| 889 | CCOc1ccc(-c2noc(N3CCC(C(=O)N4CCCCC4)CC3)n2)cc1OC |
| 745 | COCCN1C(=O)c2ccccc2C(C(=O)Nc2cc(C)ccn2)C12CCCCC2 (centres undefined) |
| 1130 | CCOc1ccc(NC(=O)c2cn(-c3cc(N4CCCC(C)C4)ncn3)cn2)cc1 (centres undefined) |
| 672 | NS(=O)(=O)c1ccc(CCNC(=O)c2ccc3c(c2)NC(=O)C2CCCCN32)cc1 (centres undefined) |
| 1010 | Cc1ccc(N2C(=O)C3N=NN(Cc4nc(-c5ccc6c(c5)OCO6)no4)C3C2=O)cc1Cl (centres undefined) |

| RP-LC retention time [s] | Compound |
| --- | --- |
| 748 | Cc1ccc(NC(=O)N(C)CC2CCOCC2)cc1F |
| 1010 | O=C(Nc1cccc(OCc2nnc(-c3ccc(Cl)cc3)o2)c1)c1ccsc1 |
| 680 | O=C(NCc1ccccc1Cl)C1CCCN(C(=O)c2cc(-c3ccccn3)n[nH]2)C1 (centres undefined) |
| 679 | Cc1nn2c(CNC(=O)Cc3cccc(C(F)(F)F)c3)c(C)nc2s1 |
| 859 | CCN1C(=O)C(C)(C(=O)Nc2ccccc2)Oc2cccnc21 (centres undefined) |
| 765 | Cn1c(N2CCCC(C(=O)N3CCN(c4ccccc4F)CC3)C2)cc(=O)n(C)c1=O (centres undefined) |
| 750 | Cc1cc(C(=O)N2CCCC2Cc2noc(C3CCCC3)n2)n[nH]1 (centres undefined) |
| 862 | Cc1c2cnn(CC(=O)NCc3ccco3)c(=O)c2c(C)n1Cc1cccc(Cl)c1 |
| 833 | CCOC(=O)c1c(NCCc2c[nH]c3ccccc23)c2ccc(Cl)cc2[nH]c1=O |
| 769 | O=C(NC1CCN(c2cc(-c3cccs3)[nH]n2)CC1)c1ccc(F)cc1F |
| 816 | Cc1sc2ccn(C)c(=O)c2c1C(=O)NCC1CCCCC1 |
| 617 | COc1ccc(N2CCN(C(=O)c3cn(-c4ccc(NC(C)=O)cn4)cn3)CC2)cc1 |
| 743 | CC(C)C(=O)Nc1ccc2c(c1)N(C(=O)c1ccco1)CCC2 |
| 639 | Cn1cc(CCNC(=O)Nc2ccc3c(c2)OCCO3)c2cccnc21 |
| 600 | CN1C(=O)C(CC(=O)NCc2nc3ccccc3n2C)=C2CCCCC21 (centres undefined) |
| 966 | CSc1ccc(-c2nc3cnccn3c2Nc2c(C)cccc2C)cc1 |
| 624 | CC(C)NC(=O)N1CCCC(c2cccc(C(=O)NCCN3CCCCC3C)c2)C1 (centres undefined) |
| 1110 | COc1nc2ccccc2nc1N1CCCC(C(=O)NCc2ccc(Cl)cc2)C1 (centres undefined) |
| 582 | COc1ccc(CC(=O)Nc2cc(N3CCOCC3)ncn2)cc1OC |
| 789 | COCCn1cc(C(=O)N2CCc3ccccc32)c2nn(-c3ccccc3)c(=O)c-2c1 |
| 840 | CC(NC(=O)c1nnc(-c2ccc(S(=O)(=O)N(C)C)cc2)o1)c1ccccc1 (centres undefined) |
| 799 | CCOc1ccccc1CN1C(=O)C2(CCOCC2)CC1c1nnnn1C(C)(C)C (centres undefined) |
| 881 | COc1ccc(NC(=O)Nc2cccc(-c3nccnc3N3CCCC3)c2)c(OC)c1 |
| 747 | O=[N+]([O-])c1cccc(/C=C/c2ccccn2)c1 |
| 646 | O=C(Cn1nc2c(cc1=O)CCCCC2)Nc1nc(-c2cccnc2)cs1 |
| 1090 | Cc1ccc(OCc2nn3c(-c4ccoc4C)nnc3s2)cc1C |
